According to ChEMBL document CHEMBL3120156, “Discovery and development of simeprevir (TMC435), a HCV NS3/4A protease inhibitor” (J Med Chem, 2014):

How the values were obtained:
[1] = Inhibition of Hepatitis C virus genotype 1a full-length NS3/4A protease; parameters: species or system Hepatitis C virus subtype 1a
[2] = Apparent permeability of the compound from apical to basolateral side of human Caco2 cells; type: ADME, cell-based; settings: Caco-2
[3] = Intrinsic clearance in human liver microsomes; type: ADME; settings: read-out: CLH
Hepatitis C virus [4] = assay: Antiviral activity against Hepatitis C virus genotype 1b infected in Huh7-clone ET Rep cells assessed as inhibition of HCV replication by luciferase assay; type: functional, organism-based, Hepacivirus hominis
[5] = Volume of distribution at steady state in Sprague-Dawley rat at 2 mg/kg, iv administered as single dose with 20% Hydroxypropyl-beta-cyclodextrine; type: ADME, organism-based; parameters: dose 2 mg/kg, route intravenous; settings: in vivo, read-out: Vdss
[6] = Inhibition of Hepatitis C virus genotype 1b NS3/4A protease; parameters: species or system Hepatitis C virus subtype 1b
Hepatitis C virus [7] = assay: Antiviral activity against Hepatitis C virus genotype 1a; type: functional, organism-based, Hepacivirus hominis; settings: subtype 1a
[8] = Drug metabolism in human liver microsomes at 5 uM at 37 degC after 15 mins; type: ADME; settings: read-out: Drug metabolism
Hepatitis C virus [9] = assay: Antiviral activity against Hepatitis C virus genotype 1 infected in human patient assessed as log10 reduction of viral RNA level administered as oral dose measured after 2 days; type: functional, Hepacivirus hominis
[10] = Plasma clearance in rat; type: ADME, organism-based
[11] = Oral bioavailability in rat; type: ADME, organism-based; settings: in vivo
[12] = Metabolic stability in rat bile assessed as unchanged drug level at 1 mg/kg, iv after 1 hr; type: ADME, organism-based; parameters: dose 1 mg/kg, route intravenous; settings: read-out: Stability
[13] = Tmax in Sprague-Dawley rat at 10 mg/kg, po administered with 50% PEG400 containing 2.5% of Vitamin E-TPGS; type: ADME, organism-based; parameters: dose 10 mg/kg, route oral; settings: in vivo
[14] = Ratio of drug level in liver to plasma in Sprague-Dawley rat at 2 mg/kg, iv administered as single dose with 20% Hydroxypropyl-beta-cyclodextrine measured after 6 hrs; type: ADME, organism-based; parameters: dose 2 mg/kg, route intravenous; settings: liver and plasma
[15] = Ratio of drug level in liver to plasma in Sprague-Dawley rat at 10 mg/kg, po administered with 50% PEG400 containing 2.5% of Vitamin E-TPGS measured after 6 hrs; type: ADME, organism-based; parameters: dose 10 mg/kg, route oral; settings: liver and plasma
[16] = Half life in Sprague-Dawley rat at 10 mg/kg, po administered with 50% PEG400 containing 2.5% of Vitamin E-TPGS; type: ADME, organism-based; parameters: dose 10 mg/kg, route oral; settings: in vivo
[17] = AUC in Sprague-Dawley rat at 10 mg/kg, po administered with 50% PEG400 containing 2.5% of Vitamin E-TPGS; type: ADME, organism-based; parameters: dose 10 mg/kg, route oral; settings: plasma
[18] = Cmax in Sprague-Dawley rat at 10 mg/kg, po administered with 50% PEG400 containing 2.5% of Vitamin E-TPGS; type: ADME, organism-based; parameters: dose 10 mg/kg, route oral; settings: in vivo
[19] = Oral bioavailability in Sprague-Dawley rat at 10 mg/kg administered with 50% PEG400 containing 2.5% of Vitamin E-TPGS; type: ADME, organism-based; settings: in vivo
[20] = Clearance in Sprague-Dawley rat at 2 mg/kg, iv administered as single dose with 20% Hydroxypropyl-beta-cyclodextrine; type: ADME, organism-based; parameters: dose 2 mg/kg, route intravenous; settings: in vivo
[21] = Protein binding in plasma (unknown origin); type: ADME, cell-free; settings: read-out: PPB
[22] = Cytotoxicity against staphylococcal enterotoxin B-stimulated human PBMC assessed as decrease in cell viability after 72 hrs by WST-1 assay; type: cell-based
Hepatitis C virus [23] = assay: Antiviral activity against Hepatitis C virus infected in po dosed patient assessed as log10 reduction of HCV RNA level administered qd for 5 days; type: functional, Hepacivirus hominis
PBMC = assay: Cytostatic activity against staphylococcal enterotoxin B-stimulated human PBMC assessed as decrease in cell proliferation after 7 hrs by [3H]thymidine incorporation assay; type: cell-based; settings: read-out: CS50 (the source's name)

Molecule | Ki [1] [nM] | EC50 (Hepatitis C virus [4]) [nM] | further results
COc1ccc2c(O[C@@H]3C[C@H]4C(=O)N[C@]5(C(=O)NS(=O)(=O)C6CC6)C[C@H]5/C=C\CCCCN(C)C(=O)N4C3)nc(-c3ccccc3)nc2c1C | 0.2 | 11 | Papp A→B [2]: 26 ×10⁻⁶ cm/s; microsomal CLint [3]: 17 µL/min/mg; Vd [5]: 1.1 L/kg
COc1ccc(-c2nc(O[C@@H]3C[C@H]4C(=O)N[C@]5(C(=O)NS(=O)(=O)C6CC6)C[C@H]5/C=C\CCCCN(C)C(=O)N4C3)c3ccc(OC)c(C)c3n2)cc1 | 0.6 | 3 | Papp A→B [2]: 33 ×10⁻⁶ cm/s; microsomal CLint [3]: 8 µL/min/mg
C=C[C@@H]1C[C@]1(NC(=O)[C@@H]1C[C@@H](Oc2cc(-c3ccccc3)nc3cc(OC)ccc23)C=C1C(=O)N[C@H](C(=O)N[C@H](C(=O)NC)C1CCCCC1)C(C)(C)C)C(=O)O | 1.3 | – | –
C=C[C@@H]1C[C@]1(NC(=O)[C@@H]1C[C@@H](Oc2cc(-c3ccccc3)nc3cc(OC)ccc23)C[C@H]1C(=O)N[C@H](C(=O)N[C@H](C(=O)NC)C1CCCCC1)C(C)(C)C)C(=O)O | 22 | – | –
CCc1cnc(-c2ccc(C)cc2NC(=O)O[C@@H]2C[C@H]3C(=O)N[C@]4(C(=O)NS(=O)(=O)C5CC5)C[C@H]4/C=C\CCCCN(C)C(=O)[C@@H]3C2)s1 | 0.2 | 3.2 | Papp A→B [2]: 15 ×10⁻⁶ cm/s; microsomal CLint [3]: < 6 µL/min/mg
CCOc1cc(O[C@@H]2C[C@H]3C(=O)N[C@]4(C(=O)NS(=O)(=O)C5CC5)C[C@H]4/C=C\CCCCN(C)C(=O)[C@@H]3C2)c2ccc(OC)c(C)c2n1 | – | 4.3 | –
COc1cc(O[C@@H]2C[C@H]3C(=O)N[C@]4(C(=O)NS(=O)(=O)C5CC5)C[C@H]4/C=C\CCCCN(C)C(=O)N3C2)nc(-c2ccccc2)n1 | – | 84 | –
COc1ccc2c(O[C@@H]3C[C@H]4C(=O)N[C@]5(C(=O)NS(=O)(=O)C6CC6)C[C@H]5/C=C\COCCN(C)C(=O)[C@@H]4C3)cc(-c3ccccc3)nc2c1 | – | 320 | –
COc1ccc2c(O[C@@H]3C[C@H]4C(=O)N[C@]5(C(=O)O)C[C@H]5/C=C/CCCCC[C@H](NC(=O)OC5CCCC5)C(=O)N4C3)cc(-c3csc(NC(C)C)n3)nc2c1 [listing 1 of 2 here] | – | 1.63 | Ki [6]: 0.66 nM; EC50 (Hepatitis C virus [7]): 4 nM; metabolised at 0.25 h, 5 µM [8]: 2.5%
COc1ccc2c(O[C@@H]3C[C@H]4C(=O)N[C@]5(C(=O)O)C[C@H]5/C=C/CCCCC[C@H](NC(=O)OC5CCCC5)C(=O)N4C3)cc(-c3csc(NC(C)C)n3)nc2c1 [listing 2 of 2 here] | – | – | FC (Hepatitis C virus [9]): 2
COc1ccc2c(O[C@@H]3C[C@H]4C(=O)N[C@]5(C(=O)O)C[C@H]5/C=C\CCCN(C(=O)OC(C)(C)C)C(=O)[C@@H]4C3)cc(-c3ccccc3)nc2c1 | 130 | > 10 | –
COc1ccc2c(O[C@@H]3C[C@H]4C(=O)N[C@]5(C(=O)O)C[C@H]5/C=C\CCCCN(C(=O)OC(C)(C)C)C(=O)[C@@H]4C3)cc(-c3ccccc3)nc2c1 | 31 | > 10 | –
COc1ccc2c(O[C@@H]3C[C@H]4C(=O)N[C@]5(C(=O)O)C[C@H]5/C=C\CCCCCN(C(=O)OC(C)(C)C)C(=O)[C@@H]4C3)cc(-c3ccccc3)nc2c1 | 710 | > 10 | –
COc1ccc2c(O[C@@H]3C[C@H]4C(=O)N[C@]5(C(=O)O)C[C@H]5/C=C\CCCCN(N)C(=O)[C@@H]4C3)cc(-c3ccccc3)nc2c1 | 6 | 7.6 | –
COc1ccc2c(O[C@H]3C=C4C(=O)N(N)CCCC/C=C\[C@@H]5C[C@@]5(C(=O)O)NC(=O)C4C3)cc(-c3ccccc3)nc2c1 (stereo partly specified) | 15 | 5.4 | –
COc1ccc2c(O[C@H]3C[C@H]4C(=O)NCCCC/C=C\[C@@H]5C[C@@]5(C(=O)O)NC(=O)[C@@H]4C3)cc(-c3ccccc3)nc2c1 | 260 | > 10 | –
COc1ccc2c(O[C@@H]3C[C@H]4C(=O)N[C@]5(C(=O)O)C[C@H]5/C=C\CCCCN(C)C(=O)[C@@H]4C3)cc(-c3ccccc3)nc2c1 | 44 | 2.2 | –
COc1ccc2c(O[C@@H]3C[C@H]4C(=O)N[C@]5(C(=O)NS(=O)(=O)C6CC6)C[C@H]5/C=C\CCCCN(NC(=O)OC(C)(C)C)C(=O)[C@@H]4C3)cc(-c3ccccc3)nc2c1 | 0.07 | 0.53 | –
COc1ccc2c(O[C@@H]3C[C@H]4C(=O)N[C@]5(C(=O)NS(=O)(=O)C6CC6)C[C@H]5/C=C\CCCCN(N)C(=O)[C@@H]4C3)cc(-c3ccccc3)nc2c1 | 0.19 | 0.033 | –
COc1ccc2c(O[C@H]3C[C@H]4C(=O)NCCCC/C=C\[C@@H]5C[C@@]5(C(=O)NS(=O)(=O)C5CC5)NC(=O)[C@@H]4C3)cc(-c3ccccc3)nc2c1 | 2.2 | 4.4 | –
COc1ccc2c(O[C@@H]3C[C@H]4C(=O)N[C@]5(C(=O)NS(=O)(=O)C6CC6)C[C@H]5/C=C\CCCCN(C)C(=O)[C@@H]4C3)cc(-c3ccccc3)nc2c1 | – | – | clearance [10]: 46.5 mL/min/kg; bioavailability [11]: 2.5%; remaining at 1 h [12]: 95%
COc1ccc2c(O[C@@H]3C[C@H]4C(=O)N[C@]5(C(=O)NS(=O)(=O)C6(C)CC6)C[C@H]5/C=C\CCCCCNC(=O)N4C3)cc(-c3nc(C(C)C)cs3)nc2c1 | – | – | Tmax [13]: 0.75 h; Kp at 6 h [14]: 550; Kp at 6 h [15]: 100; half-life [16]: 3 h; Vd [5]: 1 L/kg; AUC [17]: 6 µM·h; metabolised at 0.25 h, 5 µM [8]: 89%
COc1ccc2c(O[C@@H]3C[C@H]4C(=O)N[C@]5(C(=O)NS(=O)(=O)C6(C)CC6)C[C@H]5/C=C\CCCCCC(=O)N4C3)cc(-c3nc(C(C)C)cs3)nc2c1C | 0.2 | 3.8 | Cmax [18]: 930 nM; Papp A→B [2]: 11.1 ×10⁻⁶ cm/s; bioavailability [19]: 31%; clearance [20]: 15.7 mL/min/kg; Tmax [13]: 0.75 h; half-life [16]: 2.7 h; Vd [5]: 0.56 L/kg
COc1ccc2c(O[C@@H]3C[C@H]4C(=O)N[C@]5(C(=O)NS(=O)(=O)C6CC6)C[C@H]5/C=C\CCCCN(C)C(=O)[C@@H]4C3)cc(-c3nc(C(C)C)cs3)nc2c1C [SIMEPREVIR] | 0.36 | 7.8 | fraction unbound [21]: < 0.01; EC90 (Hepatitis C virus [4]): 19 nM; Ki [6]: 1.4 nM; CC50 at 72 h [22]: ≥ 10000 nM; FC (Hepatitis C virus [23]): 3.9; GI50 (PBMC): ≥ 10000 nM
H-DDIVPC-OH | 71000 | – | –
